Residues, ends and D or L forms follow the SMILES beside them.
Assays:
[1] = Distribution, accumulation and metabolism in mouse kidneys (ME-SALDI-MS imaging, histology); assay type: in vivo; details: mouse, in vivo
Description: At 2 h after the last dose on Day 2, mice were rapidly euthanized. The left kidney was collected, flash-frozen in liquid nitrogen, and stored at -80 C for MS imaging analysis. The right kidney was fixed in 10% formalin for histological examination (Histopathology and Organ Pathology Unit at the University of Melbourne). The level of histological damage to the kidneys was graded as previously described. […] A total of 1 μL was spotted onto electrochemically etched, porous-silicon semiconductor substrates for desorption/ionization on silicon (DIOS)[39]. […] For lipopeptide distribution in mouse kidneys, serially sectioned 8-μm frozen slices of the kidney were loaded onto DIOS substrates and coated with a thin layer of α-CHCA using a matrix sprayer (TM-Sprayer, HTX) for MSI analysis. […] Mounted tissue was scanned for imaging alignment (Epson Perfection […]) and calibrated as previously described. Resulting polymyxin maps were visualized and normalized against the total ion current (TIC) of each section using IonView software (Shimadzu). Lipopeptide accumulation in mouse kidneys was determined by simultaneous […] analysis of kidney tissue from treated animals and serial dilutions of the drug deposited on control kidney tissue. […] The signal intensities were compared to the corresponding concentration standard curve to calculate the concentration of lipopeptide present. Putative metabolites in the kidneys treated with lipopeptides were identified by […]. Control kidney sections were used to differentiate lipopeptide metabolites from endogenous metabolites and MS/MS data from lipopeptide standards were used to differentiate lipopeptide metabolites from the parent ion generated via CID processed in the acquisition software (MALDI Solutions, Shimadzu). Levels of accumulated lipopeptide metabolites were determined by normalization to the parent ion in MSI data.

[2] = 14-day repeat-dose GLP toxicology study; details: cynomolgus monkey, in vivo
Description: (§1) A 14-day repeat-dose GLP toxicology study of F365 was conducted in Cynomolgus monkeys. The study complied with the OECD Principles of Good Laboratory Practice. […] Cynomolgus monkeys were approximately 2–4 years of age and weighed between 2.0 and 2.9 kg at the start of treatment. Four male and four female cynomolgus monkeys were used for each dose group. F365 (in 0.9% sodium chloride for injection) was administered four times daily (i.e. 6 h ± 15 min apart) as 60-min intravenous infusion at 5, 20, and 50 mg/kg/day for 14 consecutive days; the reference item (vehicle control) was also administered. Assessments of mortality checks, clinical observations, body weight, ophthalmology, and electrocardiography were conducted. Blood and urine samples were collected pre-treatment and at the end of the dosing period for hematology, clinical chemistry, coagulation, and urinalysis assessments. Other blood samples were collected after the first and last dose for toxicokinetic assessment. Following the end of the 14-day dosing period, animals were euthanized on Day 16 and examined macroscopically. Organ weights and macroscopic observations were recorded at necropsy for all groups. Histopathological examinations were performed on the specified tissues and organ list for animals across all groups.

cynomolgus monkeys = experiment: 14-day repeat-dose GLP toxicology study; details: cynomolgus monkey, in vivo
Description: as §1

**Q.** What does the source list for CC[C@@H]1NC(=O)[C@@H](CC(C)C)NC(=O)[C@H](CCN)NC(=O)[C@@H](NC(=O)[C@H](CN)NC(=O)[C@@H](NC(=O)[C@H](CCN)NC(=O)c2ccc(Cl)cc2Cl)[C@@H](C)O)CCNC(=O)[C@H]([C@@H](C)O)NC(=O)[C@H](CCN)NC(=O)[C@H](CCN)NC1=O [Lipopeptide F365] (HELM PEPTIDE1{[O=C(c1ccc(Cl)cc1Cl)[*:2]].[Dab].T.[NC[C@H](N[*:1])C(=O)[*:2]].[Dab].[Dab].[dL].[Abu].[Dab].[Dab].T}$PEPTIDE1,PEPTIDE1,5:R3-11:R2$$$V2.0)?
**A.** level at time molar ([1]; female, Swiss, 10 umol/kg, 10 μmol/kg SC, 6 doses Day 1 and 3 doses Day 2, 2 h after last dose, read-out: Concentration in the kidney cortex region): 20.8 µM; M1 metabolite in kidneys [1]: no M1 metabolite detected; major metabolite in kidneys [1]: M3; NOAEL [2]: ≥ 20 mg/kg/day; AUC(0-t) ([2]; 5 mg/kg, Plasma AUC0-24 Day 1): 24 µg·h/mL; AUC(0-t) ([2]; 5 mg/kg, Plasma AUC0-24 Day 14): 26.4 µg·h/mL; AUC(0-t) ([2]; 20 mg/kg, Plasma AUC0-24 Day 1): 97.2 µg·h/mL; AUC(0-t) ([2]; 20 mg/kg, Plasma AUC0-24 Day 14): 110 µg·h/mL; AUC(0-t) ([2]; 50 mg/kg, Plasma AUC0-24 Day 1): 246 µg·h/mL; AUC(0-t) ([2]; 50 mg/kg, Plasma AUC0-24 Day 14): 378 µg·h/mL; estimated dose that can be safely administered to patients (cynomolgus monkeys): at least 6.5 mg/kg/day; Kidney histopathology (cynomolgus monkeys; 5 mg/kg): 8/8 no changes

From PMC8956739, “A synthetic lipopeptide targeting top-priority multidrug-resistant Gram-negative pathogens” (Nature Communications, 2022)
